Assay results: patent publication US20050288299A1, “Azaindole derivatives as inhibitors of p38 kinase” (priority 2002, published 2005)

Target: p38α kinase (Homo sapiens, UniProt Q16539)
Assay: p38α Flash Plate Assay (p38 kinase inhibition)
Assay type: biochemical
Conditions: in vitro; 150 μM ATP, 0.05 mM biotinylated peptide substrate, 5 nM enzyme, 60 minute incubation at 30° Celsius; read-out: P38 α-FLASHPLATE IC50
Method: Assay for p38 Kinase Inhibition—p38α Flash Plate Assay
The compounds to be tested were solubilized in DMSO and diluted with water to the desired concentrations. The p38 kinase was diluted to 20 nM into a buffer containing 20 mM MOPS, pH 7.0, 25 mM beta-glycerol phosphate, 2 mg/ml gelatin, 0.5 mM EGTA (ethylene-bis-(oxyethylenenitrilo)-tetraacetic acid), and 4 mM dithiothreitol (DTT).
The reaction was carried out by mixing 20 μl test compound with 10 μl of a substrate cocktail containing 0.2 mM biotinylated peptide substrate and 0.6 mM ATP (+100 μCi/ml gamma-^33P-ATP) in a 5× assay buffer. The reaction was initiated by the addition of 10 μl of p38 kinase. Final assay conditions were 25 mM MOPS, pH 7.0, 26.25 mM beta-glycerol phosphate, 80 mM KCl, 22 mM MgCl2, 3 mM MgSO4, 1 mg/ml gelatin, 0.625 mM EGTA, 1 mM DTT, 0.05 mM peptide substrate, 150 μM ATP, and 5 nM enzyme. After a 60 minute incubation at 30° Celsius, the reaction was stopped by the addition of 10 μl per reaction of 0.25 M phosphoric acid.
A portion of the reaction was transferred to a streptavidin-coated Flash Plate (Perkin Elmer); the Flash Plate was incubated for 60 minutes at 30° Celsius and then washed 3× with PBS containing 0.01% Tween-20.
Counts incorporated are determined on a scintillation counter. Relative enzyme activity was calculated by subtracting background counts (counts measured in the absence of enzyme) from each result, and comparing the resulting counts to those obtained in the absence of inhibitor. IC50 values were determined with curve-fitting plots available with common software packages. The IC50 was expressed as the concentration of compound which inhibited the enzyme activity by 50%.

p38α kinase, sequence (Q16539 whole entry): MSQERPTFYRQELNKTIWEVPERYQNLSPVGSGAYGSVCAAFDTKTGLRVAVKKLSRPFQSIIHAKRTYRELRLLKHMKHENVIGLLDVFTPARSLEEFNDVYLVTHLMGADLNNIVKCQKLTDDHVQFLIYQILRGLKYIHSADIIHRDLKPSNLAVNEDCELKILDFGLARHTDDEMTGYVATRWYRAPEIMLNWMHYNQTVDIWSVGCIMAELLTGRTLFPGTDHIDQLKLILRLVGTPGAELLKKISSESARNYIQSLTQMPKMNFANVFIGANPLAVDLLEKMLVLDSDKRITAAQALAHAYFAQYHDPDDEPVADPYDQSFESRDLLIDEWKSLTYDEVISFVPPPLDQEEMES

IC50: 64 nM
SMILES: CCOc1nc2[nH]cc(C(=O)C(=O)NC)c2cc1C(=O)N1CCC(Cc2ccc(F)cc2)CC1 [compound 36]
